Laboratory results from patent US7645762B2, “Substituted pyrazolo[1,5-a] pyrimidines as protein kinase inhibitors” (Schering Corporation, priority 2005, dated 2010).

Target: T1, CDK2 (Homo sapiens, UniProt P24941)
T1 construct: The expressed protein was approximately 34 kDa in size; made in house; host or cells: SF9 insect cells (baculovirus, pFASTBAC)
Assay: CDK2 in vitro kinase assay (SPA, 33P-ATP, biotinylated Histone H1 peptide)
Format: biochemical
Details: recombinant cyclin A or E-dependent CDK2 from baculovirus/SF9 cells; 1 hour at room temperature; 8 point dilutions in duplicate

Nc1cc2nc(-c3ccccc3)cc(N)n2n1
IC50: 80 nM

Nc1nn2c(N)cc(-c3ccccc3)nc2c1Br
IC50: 4670 nM
